Measured values published in US20040133038A1, “Method of purifying aromatic polycarboxylic acid” (priority 2001, published 2004).
Read-outs that look alike come from different tables or passages of the source.

Assay: solubility in water
Format: physicochemical

SMILES: O=C(O)c1ccc2cc(C(=O)O)ccc2c1 [2,6-naphthalenedicarboxylic acid]
- amount dissolved in 600 g of water, calculated from the solubility: 36 g

SMILES: O=C(O)c1ccc(-c2ccc(C(=O)O)cc2)cc1 [biphenyldicarboxylic acid]
- solubility in water relative to that of terephthalic acid: 1/10

SMILES: O=C(O)c1ccc2cc(C(=O)O)ccc2c1 [naphthalenedicarboxylic acid]
- solubility in water relative to that of terephthalic acid (fraction of the solubility of terephthalic acid): 1/10

SMILES: O=C(O)c1ccc(C(=O)O)cc1 [terephthalic acid]
- solubility in water: 6.5 g/100 g
- amount dissolved in 600 g of water, calculated from the solubility (600 g of water, 230° C.): 39 g
